The source of these data is patent publication US12263171B2, “7-, 8-, and 10-substituted amino triazolo quinazoline derivatives as adenosine receptor antagonists, pharmaceutical compositions and their use” (Merck Sharp & Dohme LLC, priority 2018, dated 2025).

Test [1] addresses human A2a adenosine receptor (Homo sapiens (Human), UniProt P29274). The test is described as follows: A2a receptor affinity radioligand binding assay ([3H] SCH58261, membranes from HEK293 or CHO cells). The conditions noted are these: unstarred values: radioligand binding. A digest of the protocol: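 Displacement of tritiated SCH58261 (working dilution 4 nM) from recombinant human A2a receptor membranes (HEK293 or CHO), 60 min at room temperature in Tris pH 7.4/MgCl2 buffer after 15–30 min compound preincubation. Scintillation counting after filtration; normalized percent effect fitted 4-parameter logistic for IC50.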

The target in test [2] is human A2b adenosine receptor (Homo sapiens (Human), UniProt P29275). The test is described as follows: A2B antagonism in cAMP cell-based assay (LANCE cAMP, HEK293 cells, 600 nM adenosine). The conditions noted are these: for IC50: values marked *: cAMP cell-based assay; for *A2B cAMP % inh. @ 10000 nM: marked *. A general note: TR-FRET usually uses a lanthanide donor and a delayed reading to cut background.
human A2b adenosine receptor, sequence (P29275 whole entry): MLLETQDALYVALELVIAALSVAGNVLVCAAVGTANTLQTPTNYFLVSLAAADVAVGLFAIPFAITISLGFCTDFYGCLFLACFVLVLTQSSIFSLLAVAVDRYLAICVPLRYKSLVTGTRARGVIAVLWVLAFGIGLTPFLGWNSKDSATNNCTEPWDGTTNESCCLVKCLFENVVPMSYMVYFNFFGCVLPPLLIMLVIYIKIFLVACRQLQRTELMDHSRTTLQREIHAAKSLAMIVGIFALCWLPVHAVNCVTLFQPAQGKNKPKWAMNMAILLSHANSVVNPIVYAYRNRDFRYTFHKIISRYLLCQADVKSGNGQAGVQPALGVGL

Each structure is given as a SMILES string.

human A2a adenosine receptor, sequence (P29274 whole entry): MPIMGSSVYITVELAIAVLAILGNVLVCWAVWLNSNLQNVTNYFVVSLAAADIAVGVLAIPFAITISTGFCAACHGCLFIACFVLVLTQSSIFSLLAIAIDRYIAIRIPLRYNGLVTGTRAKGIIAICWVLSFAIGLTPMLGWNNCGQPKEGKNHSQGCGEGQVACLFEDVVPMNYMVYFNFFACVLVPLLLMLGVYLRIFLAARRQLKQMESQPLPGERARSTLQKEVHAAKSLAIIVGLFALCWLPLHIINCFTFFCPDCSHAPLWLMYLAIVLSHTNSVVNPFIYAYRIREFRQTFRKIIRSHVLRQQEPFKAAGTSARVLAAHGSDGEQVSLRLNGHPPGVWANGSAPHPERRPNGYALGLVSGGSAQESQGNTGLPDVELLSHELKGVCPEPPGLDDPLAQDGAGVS

Broadly, the IC50 is the concentration at which inhibition is half-maximal. Read a high IC50 as weaker potency in that assay. In the case of `COc1cccc2c1nc(N)n1nc([C@@H]3CCCN(c4ccccn4)C3)nc21` [Example 119], the IC50 in test [1] was found to be 1.2 nM; in test [2] it was 18.1 nM.

For the molecule `COc1cccc2c1nc(N)n1nc([C@@H]3CCCN(c4cnn(CC(C)(C)N)c4)C3)nc21` [Example 120, (R)-2-(1-(1-(2-amino-2-methylpropyl)-1H-pyrazol-4-yl)piperidin-3-yl)-7-methoxy-[1,2,4]triazolo[1,5-c]quinazolin-5-amine], the half-inhibitory concentration (IC50) was 3.1 nM in test [1] and 321 nM in test [2].

Turning to `COc1cccc2c1nc(N)n1nc([C@@H]3CCCN(c4cnn(CS(C)(=O)=O)c4)C3)nc21` [Example 123, (R)-7-methoxy-2-(1-(1-((methylsulfonyl)methyl)-1H-pyrazol-4-yl)piperidin-3-yl)-[1,2,4]triazolo[1,5-c]quinazolin-5-amine], the IC50 amounted to 0.8 nM in test [1] and 13.1 nM in test [2].

As for `Nc1nc2c(OC(F)F)cccc2c2nc([C@@H]3CCCN(c4cnn(C5CC5)c4)C3)nn12` [Example 125, (R)-2-(1-(1-cyclopropyl-1H-pyrazol-4-yl)piperidin-3-yl)-7-(difluoromethoxy)-[1,2,4]triazolo[1,5-c]quinazolin-5-amine], the IC50 in test [1] stood at 7.7 nM; in test [2], 1280 nM.

Take `Cn1cc(N2CCC[C@@H](c3nc4c5cccc(OC(F)F)c5nc(N)n4n3)C2)cn1` [Example 126, (R)-7-(difluoromethoxy)-2-(1-(1-methyl-1H-pyrazol-4-yl)piperidin-3-yl)-[1,2,4]triazolo[1,5-c]quinazolin-5-amine]: the figures for the IC50 in test [1] and in test [2] were 13.2 nM and 2510 nM, respectively.

Consider `COc1cccc2c1nc(N)n1nc(C34CC(C3)N(c3cnn(C)c3)C4)nc21` [Example 127, 7-methoxy-2-(2-(1-methyl-1H-pyrazol-4-yl)-2-azabicyclo[2.1.1]hexan-4-yl)-[1,2,4]triazolo[1,5-e]quinazolin-5-amine], for which the results for the IC50 in test [1] and in test [2] were 56.8 nM and 1650 nM, respectively.

Molecule `COc1cccc2c1nc(N)n1nc(C3CCCN(c4cnn(C5CC5)c4)C3C)nc21` (centres unmarked) [Example 129] returned an IC50 in test [1] of 5280 nM. Moreover, the “*A2B cAMP % inh. @ 10000 nM” value in test [2] was found to be 30% inh. @ 10000 nM*.

For `COc1cccc2c1nc(N)n1nc([C@@H]3CCC[C@@H](c4cnn(C)c4)C3)nc21` [Example 136B, 7-methoxy-2-((1R,3R)-3-(1-methyl-1H-pyrazol-4-yl)cyclohexyl)-[1,2,4]triazolo[1,5-c]quinazolin-5-amine], the half-maximal inhibitory concentration (IC50) in test [1] amounted to 10.8 nM; in test [2] it was 404 nM.

Consider `CCn1cc(N2C[C@H](c3nc4c5cccc(OC)c5nc(N)n4n3)CC[C@@H]2C)cn1` [Example 140D], for which the IC50 in test [1] came to 5 nM; in test [2], 3010 nM.

With `COc1cccc2c1nc(N)n1nc([C@H]3CC[C@H](C)N(c4cnn(CC5(O)CCC5)c4)C3)nc21` [Example 144B], the results for the IC50 in test [1] and in test [2] were 3.1 nM and 333 nM, respectively.

For the molecule `COc1cccc2c1nc(N)n1nc([C@@H]3CC[C@H](C)N(c4cnn(C(C)C(C)(C)O)c4)C3)nc21` (stereo partly drawn) [Example 147D, 3-(4-((2S,5R)-5-(5-amino-7-methoxy-[1,2,4]triazolo[1,5-c]quinazolin-2-yl)-2-methylpiperidin-1-yl)-1H-pyrazol-1-yl)-2-methylbutan-2-ol], the values for the half-inhibitory concentration (IC50) in test [1] and in test [2] were 0.2 nM and 5.6 nM, respectively.

Turning to `COc1cccc2c1nc(N)n1nc([C@H]3C[C@@H](F)CN(c4cnn(C5CC5)c4)C3)nc21` [Example 148A], the IC50 in test [1] is 1 nM; in test [2] it was 234 nM.

Molecule `COc1cccc2c1nc(N)n1nc([C@@H]3C[C@@H](F)CN(c4cnn(C5CC5)c4)C3)nc21` [Example 148B] came in with an IC50 in test [1] of 27.8 nM. The “*A2B cAMP % inh. @ 10000 nM” value in test [2] is given as 36% inh. @ 10000 nM*.

As for `CCn1cc(N2C[C@H](c3nc4c5cccc(OC)c5nc(N)n4n3)CC(F)(F)C2)cn1` [Example 153B], the 50% inhibitory concentration (IC50) turned out to be 1 nM in test [1] and 677 nM in test [2].

Regarding `CCn1cc(N2CC[C@@H](c3nc4c5cccc(OC)c5nc(N)n4n3)C2)cn1` [Example 160, (R)-2-(1-(1-ethyl-1H-pyrazol-4-yl)pyrrolidin-3-yl)-7-methoxy-[1,2,4]triazolo[1,5-c]quinazolin-5-amine], the half-maximal inhibitory concentration (IC50) was determined as 19 nM in test [1] and 395 nM in test [2].

As for `COc1cccc2c1nc(N)n1nc([C@@H]3CCN(c4cnn(C5CC5)c4)C3)nc21` [Example 161, (R)-2-(1-(1-cyclopropyl-1H-pyrazol-4-yl)pyrrolidin-3-yl)-7-methoxy-[1,2,4]triazolo[1,5-c]quinazolin-5-amine], the half-inhibitory concentration (IC50) in test [1] amounted to 13.2 nM; in test [2] it was 231 nM.

In the case of `COc1cccc2c1nc(N)n1nc([C@@H]3CCN(c4cnn(C(C)(C)C)c4)C3)nc21` [Example 163, (R)-2-(1-(1-(tert-butyl)-1H-pyrazol-4-yl)pyrrolidin-3-yl)-7-methoxy-[1,2,4]triazolo[1,5-c]quinazolin-5-amine], the IC50 was found to be 14 nM in test [1] and 42.1 nM in test [2].

Turning to `COc1cccc2c1nc(N)n1nc([C@@H]3CCN(c4cnn(CC(F)(F)F)c4)C3)nc21` [Example 164, (R)-7-methoxy-2-(1-(1-(2,2,2-trifluoroethyl)-1H-pyrazol-4-yl)pyrrolidin-3-yl)-[1,2,4]triazolo[1,5-c]quinazolin-5-amine], the IC50 in test [1] was found to be 8.9 nM; in test [2] it was 29.5 nM.

As to `COc1ccc2c(c1)nc(N)n1nc([C@@H]3CCCN(c4cnn(C)c4)C3)nc21` [Example 177, (R)-8-methoxy-2-(1-(1-methyl-1H-pyrazol-4-yl)piperidin-3-yl)-[1,2,4]triazolo[1,5-c]quinazolin-5-amine], the half-maximal inhibitory concentration (IC50) was 4.7 nM in test [1] and 132 nM in test [2].

As to `COc1ccc2c(c1)nc(N)n1nc([C@@H]3CCCN(c4cnn(C5CC5)c4)C3)nc21` [Example 184, (R)-2-(1-(1-cyclopropyl-1H-pyrazol-4-yl)piperidin-3-yl)-8-methoxy-[1,2,4]triazolo[1,5-c]quinazolin-5-amine], the IC50 was determined as 4 nM in test [1] and 141 nM in test [2].

Consider `COc1ccc2c(c1)nc(N)n1nc([C@@H]3CC[C@H](C)N(c4cn(CC(C)(C)O)nc4C)C3)nc21` [Example 213, 1-(4-((2S,5R)-5-(5-amino-8-methoxy-[1,2,4]triazolo[1,5-c]quinazolin-2-yl)-2-methylpiperidin-1-yl)-3-methyl-1H-pyrazol-1-yl)-2-methylpropan-2-ol], for which the IC50 in test [1] is 0.4 nM; in test [2], 27.6 nM.

For the molecule `COc1ccc2c(c1)nc(N)n1nc([C@@H]3CC[C@H](C)N(c4cnn(C(C)(C)CO)c4)C3)nc21` [Example 214, 2-(4-((2S,5R)-5-(5-amino-8-methoxy-[1,2,4]triazolo[1,5-c]quinazolin-2-yl)-2-methylpiperidin-1-yl)-1H-pyrazol-1-yl)-2-methylpropan-1-ol], the half-inhibitory concentration (IC50) was 0.2 nM in test [1] and 2.8 nM in test [2].

Regarding `CC[C@@H]1CC[C@@H](c2nc3c4ccc(OC)cc4nc(N)n3n2)CN1c1cnn(C(C)(C)CO)c1` [Example 215B], the 50% inhibitory concentration (IC50) worked out at 0.5 nM in test [1] and 6.3 nM in test [2].

For the molecule `CC[C@H]1CC[C@H](c2nc3c4ccc(OC)cc4nc(N)n3n2)CN1c1cnn(C(C)(C)CO)c1` [Example 215C], the half-maximal inhibitory concentration (IC50) in test [1] amounted to 8.7 nM; in test [2], 1330 nM.

Take `CC[C@H]1CC[C@@H](c2nc3c4ccc(OC)cc4nc(N)n3n2)CN1c1cnn(C(C)(C)CO)c1` [Example 215D]: the values for the half-inhibitory concentration (IC50) in test [1] and in test [2] were 20.7 nM and 721 nM, respectively.

Regarding `CC[C@@H]1CC[C@@H](c2nc3c4cccc(OC)c4nc(N)n3n2)CN1c1cnn(CC(C)(C)O)c1` [Example 216A, 1-(4-((2R,5R)-5-(5-amino-7-methoxy-[1,2,4]triazolo[1,5-c]quinazolin-2-yl)-2-ethylpiperidin-1-yl)-1H-pyrazol-1-yl)-2-methylpropan-2-ol], the IC50 in test [1] came out at 33.9 nM; in test [2], 651 nM.

Turning to `CC[C@H]1CC[C@H](c2nc3c4cccc(OC)c4nc(N)n3n2)CN1c1cnn(CC(C)(C)O)c1` [Example 216B, 1-(4-((2S,5S)-5-(5-amino-7-methoxy-[1,2,4]triazolo[1,5-c]quinazolin-2-yl)-2-ethylpiperidin-1-yl)-1H-pyrazol-1-yl)-2-methylpropan-2-ol], the IC50 in test [1] was determined as 0.4 nM; in test [2] it was 6.6 nM.

Consider `CC[C@H]1CC[C@@H](c2nc3c4cccc(OC)c4nc(N)n3n2)CN1c1cnn(CC(C)(C)O)c1` [Example 216C, 1-(4-((2S,5R)-5-(5-amino-7-methoxy-[1,2,4]triazolo[1,5-c]quinazolin-2-yl)-2-ethylpiperidin-1-yl)-1H-pyrazol-1-yl)-2-methylpropan-2-ol], for which the IC50 in test [1] amounted to 23.5 nM; in test [2] it was 292 nM.

As to `COc1ccc2c(c1)nc(N)n1nc([C@H]3C[C@@H](C)CN(c4cn([C@@H](C)[C@H](C)O)nc4C)C3)nc21` [Example 219A, (2S,3S)-3-(4-((3S,5R)-3-(5-amino-8-methoxy-[1,2,4]triazolo[1,5-c]quinazolin-2-yl)-5-methylpiperidin-1-yl)-3-methyl-1H-pyrazol-1-yl)butan-2-ol], the values for the concentration for half-maximal inhibition (IC50) in test [1] and in test [2] were 0.5 nM and 1970 nM, respectively.

For the molecule `COc1ccc2c(c1)nc(N)n1nc([C@@H]3C[C@H](C)CN(c4cn([C@H](C)[C@@H](C)O)nc4C)C3)nc21` [Example 219B, (2R,3R)-3-(4-((3R,5S)-3-(5-amino-8-methoxy-[1,2,4]triazolo[1,5-c]quinazolin-2-yl)-5-methylpiperidin-1-yl)-3-methyl-1H-pyrazol-1-yl)butan-2-ol], the half-inhibitory concentration (IC50) was determined as 0.2 nM in test [1] and 999 nM in test [2].

`COc1ccc2c(c1)nc(N)n1nc([C@@H]3CCCN(c4cnn([C@@H](C)[C@H](C)O)c4)C3)nc21` [Example 220A, (2S,3S)-3-(4-((R)-3-(5-amino-8-methoxy-[1,2,4]triazolo[1,5-c]quinazolin-2-yl)piperidin-1-yl)-1H-pyrazol-1-yl)butan-2-ol]: the IC50 in test [1] was 1.03 nM; in test [2] it was 66.2 nM.
